Patent publication US20260364028A1, “COMBINATION TREATMENTS FOR DEPRESSION AND OTHER DISORDERS” (NEURAWELL THERAPEUTICS, priority 2023, published 2026)
Read-outs that look alike come from different tables or passages of the source.

Key:
[1] = plasma, cited from earlier work
Monoamine Oxidase MAO-A = biological target: T1, Monoamine Oxidase MAO-A (Homo sapiens, UniProt P21397); assay: Monoamine oxidase MAO-A inhibition enzyme assay (kynuramine, spectrofluorimetric); type: biochemical; conditions: for interference with the inhibition of MAO-A by phenelzine (in words): beta blocker in presence of phenelzine […] nM and 150 nM; for inhibition at 2 µM / inhibitory activity of MAO-A (in words): beta blocker alone; for inhibitory activity of MAO-A (in words): significant = ≥50% inhibition
T1 construct: host or cells: insect cells (recombinant)
T1 sequence (P21397 1-527): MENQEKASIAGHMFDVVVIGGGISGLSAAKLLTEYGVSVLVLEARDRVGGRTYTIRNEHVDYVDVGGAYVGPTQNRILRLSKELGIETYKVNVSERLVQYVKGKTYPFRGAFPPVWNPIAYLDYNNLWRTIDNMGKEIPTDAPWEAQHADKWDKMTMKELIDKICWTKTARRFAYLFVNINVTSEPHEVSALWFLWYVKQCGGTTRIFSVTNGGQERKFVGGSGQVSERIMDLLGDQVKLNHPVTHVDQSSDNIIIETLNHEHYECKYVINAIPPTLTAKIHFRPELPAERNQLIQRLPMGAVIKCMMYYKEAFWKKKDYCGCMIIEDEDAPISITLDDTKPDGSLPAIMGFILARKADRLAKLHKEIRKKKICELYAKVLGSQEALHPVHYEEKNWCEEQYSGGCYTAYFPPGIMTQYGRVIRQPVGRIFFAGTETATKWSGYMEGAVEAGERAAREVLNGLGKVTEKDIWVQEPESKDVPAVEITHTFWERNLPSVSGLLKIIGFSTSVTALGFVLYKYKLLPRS

Monoamine Oxidase MAO-B = biological target: T2, Monoamine Oxidase MAO-B (Homo sapiens, UniProt P27338); assay: Monoamine oxidase MAO-B inhibition enzyme assay (kynuramine, spectrofluorimetric); type: biochemical; conditions: for inhibition at 2 µM: read-out: % MAO-B inhibition
T2 construct: host or cells: insect cells (recombinant)
T2 sequence (P27338 1-520): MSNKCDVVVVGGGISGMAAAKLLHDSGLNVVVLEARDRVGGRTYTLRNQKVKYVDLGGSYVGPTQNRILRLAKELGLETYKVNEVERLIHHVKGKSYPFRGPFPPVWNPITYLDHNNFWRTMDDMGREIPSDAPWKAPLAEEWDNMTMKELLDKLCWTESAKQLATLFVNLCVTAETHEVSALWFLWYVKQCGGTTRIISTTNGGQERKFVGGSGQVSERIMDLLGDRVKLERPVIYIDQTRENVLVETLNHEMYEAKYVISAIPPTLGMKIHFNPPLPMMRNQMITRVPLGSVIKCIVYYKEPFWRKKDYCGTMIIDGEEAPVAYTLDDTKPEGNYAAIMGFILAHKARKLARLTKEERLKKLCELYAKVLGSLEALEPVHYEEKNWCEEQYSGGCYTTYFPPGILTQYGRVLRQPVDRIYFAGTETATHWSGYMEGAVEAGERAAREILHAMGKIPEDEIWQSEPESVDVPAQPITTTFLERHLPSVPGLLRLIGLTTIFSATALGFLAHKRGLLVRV

[2] = tested on: systolic or diastolic blood pressure; conditions: cited from earlier work
[3] = tested on: tyramine pressor response; conditions: cited from earlier work; for TSF High / TSF Low: literature-reported
[4] = typical circumstances, no MAO inhibition; cited from earlier work
depression = conditions: meta-analysis of 14 antidepressants and placebo; cited from earlier work
[5] = Tranylcypromine 20 mg/d with placebo (no beta blocker)
[6] = Selegiline 10 mg/d with placebo (no beta blocker)
[7] = Phenelzine 60 mg/d with placebo (no beta blocker)

COC(=O)CCc1ccc(OCC(O)CNC(C)C)cc1 (centres unmarked) [Esmolol]
half-life [1]: approximately 9 minutes

Cc1cc(C(=O)NNCc2ccccc2)no1 [Isocarboxazide]
% MAO-A inhibition (Monoamine Oxidase MAO-A; role: inhibitor, isocarboxazid 10 μM): 91%
% MAO-B inhibition (Monoamine Oxidase MAO-B): 98%

N[C@@H]1C[C@H]1c1ccccc1 (relative stereo) [Tranylcypromine]
half-life [1]: approximately 2.5 hours
patients with significant transient blood pressure increases (20 mmHg or more) immediately after taking [2]: approximately 50%
TSF High [3, 5]: 55
TSF Low [3, 5]: 30
TSF ([3]; tranylcypromine at 20 mg/day): 55

CC(C)NCC(O)COc1ccc(COCCOC(C)C)cc1 (centres unmarked) [Bisoprolol]
interference with the inhibition of MAO-A by phenelzine (in words) (Monoamine Oxidase MAO-A): no interference was observed
inhibition at 2 µM (Monoamine Oxidase MAO-A; role: inhibitor): -5%
inhibitory activity of MAO-A (in words) (Monoamine Oxidase MAO-A; role: inhibitor): no significant inhibitory activity
inhibitory activity of MAO-B (in words) (Monoamine Oxidase MAO-B): no significant inhibitory activity
interference with the inhibition of MAO-B by phenelzine (in words) (Monoamine Oxidase MAO-B): no interference was observed
inhibition at 2 µM (Monoamine Oxidase MAO-B): 13%
half-life [1]: 9 to 12 h

CC(C)NCC(O)COc1cccc2[nH]ccc12 (centres unmarked) [Pindolol, 1-(Indol-4-yloxy)-3-(isopropylamino)-2-propanol]
interference with the inhibition of MAO-A by phenelzine (in words) (Monoamine Oxidase MAO-A): no interference was observed
inhibition at 2 µM (Monoamine Oxidase MAO-A; role: inhibitor): -1%
inhibitory activity of MAO-A (in words) (Monoamine Oxidase MAO-A; role: inhibitor): no significant inhibitory activity
inhibitory activity of MAO-B (in words) (Monoamine Oxidase MAO-B): no significant inhibitory activity
interference with the inhibition of MAO-B by phenelzine (in words) (Monoamine Oxidase MAO-B): no interference was observed
inhibition at 2 µM (Monoamine Oxidase MAO-B): -5%
half-life [1]: 3 to 4 h

NCCc1ccc(O)cc1 [tyramine]
dietary tyramine ending up in systemic circulation [4]: less than 1%

C#CCN(C)[C@H](C)Cc1ccccc1 [Selegiline]
half-life ([1]; human): approximately 10 hours
TSF High [3, 6]: 4
TSF Low [3, 6]: 3

NNCCc1ccccc1 [Phenelzine]
efficacy compared to all other treatments (in words) (depression): superior efficacy compared to all other treatments
half-life [1]: approximately 11.6 hours
patients with significant transient blood pressure increases (20 mmHg or more) immediately after taking [2]: approximately 50%
TSF High [3, 7]: 30
TSF Low [3, 7]: 9
TSF ([3]; phenelzine at 45 mg/day): 13.3

COc1ccccc1OCCNCC(O)COc1cccc2[nH]c3ccccc3c12 (centres unmarked) [Carvedilol]
interference with the inhibition of MAO-A by phenelzine (in words) (Monoamine Oxidase MAO-A): no interference was observed
inhibition at 2 µM (Monoamine Oxidase MAO-A; role: inhibitor): 4%
inhibitory activity of MAO-A (in words) (Monoamine Oxidase MAO-A; role: inhibitor): no significant inhibitory activity
inhibitory activity of MAO-B (in words) (Monoamine Oxidase MAO-B): no significant inhibitory activity
interference with the inhibition of MAO-B by phenelzine (in words) (Monoamine Oxidase MAO-B): no interference was observed
inhibition at 2 µM (Monoamine Oxidase MAO-B): 23%
